The text below walks through data of US10947252B2, “Inhibitors of KEAP1-Nrf2 protein-protein interaction” (Janssen Pharmaceutica NV, priority 2018, dated 2021).

Usually Kd stands for the constant that tells how readily two partners part at equilibrium. Broadly, the EC50 is the concentration at which the effect is half-maximal. Read a low EC50 as a more potent agent.

Assay [1] deals with Kelch domain of human KEAP1 (321-624 aa) (Homo sapiens (Human), UniProt Q14145). As to the kind of experiment: KEAP1 KELCH ThermoFluor binding assay.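 Note: Ligand-induced melting temperature shift of E. coli-expressed KEAP1 Kelch protein, Kd estimated from concentration-response curves of ΔTm.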 Conditions: KEAP Kelch […], 1,8-ANS, pH 7.0, average of results obtained, read-out: Tf Kd.
Sequence of Kelch domain of human KEAP1 (321-624 aa) (Q14145 321-624): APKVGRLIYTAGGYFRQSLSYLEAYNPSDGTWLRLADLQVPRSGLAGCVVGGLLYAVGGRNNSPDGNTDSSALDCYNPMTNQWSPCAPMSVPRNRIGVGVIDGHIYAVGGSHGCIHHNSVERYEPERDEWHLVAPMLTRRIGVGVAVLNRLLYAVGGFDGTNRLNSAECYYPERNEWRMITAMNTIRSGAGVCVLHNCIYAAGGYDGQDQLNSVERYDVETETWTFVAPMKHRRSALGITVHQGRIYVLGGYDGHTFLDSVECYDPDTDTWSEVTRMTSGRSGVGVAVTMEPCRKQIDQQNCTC
Assay [2] relates to Glo-Response ARE-luc2P HEK293 cell line. The experiment in a line: ARE luciferase reporter cell-based assay.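 Note: luciferase signal tracks Nrf2 activation of the ARE once compounds disrupt KEAP1-Nrf2 binding, read with One-Glo reagent, DMSO serving as low control.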 Conditions: Homo sapiens, HEK293, 24 h, average of results obtained.

With `Cc1ccc([C@H](CC(=O)O)c2ccn3c(C(F)(F)F)nnc3c2C)cc1CN1C[C@@H]2CCC(F)(F)CN2c2ncccc2S1(=O)=O` (single isomer, unassigned) [Example 453, (*S)-3-(3-(((*S)-10,10-Difluoro-5,5-dioxido-7,7a,8,9,10,11-hexahydro-6H-dipyrido[2,1-d:2′,3′-f][1,2,5]thiadiazepin-6-yl)methyl)-4-methylphenyl)-3-(8-methyl-3-(trifluoromethyl)-[1,2,4]triazolo[4,3-a]pyridin-7-yl)propanoic Acid], the Kd in assay [1] was less than 1 nM. For the same molecule, in assay [2], the EC50 was found to be 162 nM.

On to `Cc1ccc(C(CC(=O)O)c2ccc3c(nnn3CC3CC3)c2C(F)F)cc1CN1CC2CCCN2c2ncccc2S1(=O)=O` (stereo not drawn) [Example 65], for which the Kd in assay [1] is 2.5 nM. Further, in assay [2], the EC50 is 360 nM.

As for `Cc1ccc([C@@H](CC(=O)O)c2ccn3c(C)nnc3c2)cc1CN1C[C@H]2CCCN2c2ccccc2S1(=O)=O` (single isomer, unassigned) [Example 166, (*R)-3-(3-(((R)-5,5-Dioxido-7a,8,9,10-tetrahydrobenzo[f]pyrrolo[2,1-d][1,2,5]thiadiazepin-6(7H)-yl)methyl)-4-methylphenyl)-3-(3-methyl-[1,2,4]triazolo[4,3-a]pyridin-7-yl)propanoic Acid], the equilibrium dissociation constant (Kd) in assay [1] was less than 1 nM. The molecule also came in with an EC50 in assay [2] of 7020 nM.

For `CCn1nnc2c(C)c([C@H](CC(=O)O)c3ccc(C)c(CN4CC5(CCOCC5)Oc5ccc(F)cc5S4(=O)=O)n3)ccc21` (single isomer, unassigned) [Example 418, (*S)-3-(1-ethyl-4-methyl-1H-benzo[d][1,2,3]triazol-5-yl)-3-(6-((8-fluoro-1,1-dioxido-2′,3′,5′,6′-tetrahydrospiro[benzo[b][1,4,5]oxathiazepine-4,4′-pyran]-2(3H)-yl)methyl)-5-methylpyridin-2-yl)propanoic Acid], the dissociation constant (Kd) in assay [1] was less than 1 nM. Besides, a half-maximal response in assay [2] (EC50) required 0.96 nM.

For the molecule `Cc1c([C@@H](CC(=O)O)c2ccc(Cl)c(CN3CC4CCCCN4c4ncccc4S3(=O)=O)c2)ccn2c(C(F)(F)F)nnc12` (single isomer, unassigned) [Example 84, (*S)-3-(4-Chloro-3-(((*S)-5,5-dioxido-7,7a,8,9,10,11-hexahydro-6H-dipyrido[2,1-d:2′,3′-][1,2,5]thiadiazepin-6-yl)methyl)phenyl)-3-(8-methyl-3-(trifluoromethyl)-[1,2,4]triazolo[4,3-a]pyridine-7-yl)propanoic Acid], the Kd in assay [1] is less than 1 nM. In assay [2], this molecule registered an EC50 of 80.5 nM.

As for `Cc1ccc([C@@H](c2ccc3c(nnn3C3CC3)c2C)C(C)(C)C(=O)O)cc1CN1CC2(CC2)Oc2nc(N[C@@H](C)CN3CCCCC3)c(C)cc2S1(=O)=O` (single isomer, unassigned) [Example 659, (*S)-3-(1-Cyclopropyl-4-methyl-1H-benzo[d][1,2,3]triazol-5-yl)-2,2-dimethyl-3-(4-methyl-3-((8′-methyl-1′,1′-dioxido-7′-(((S)-1-(piperidin-1-yl)propan-2-yl)amino)spiro[cyclopropane-1,4′-pyrido[2,3-b][1,4,5]oxathiazepin]-2′(3′H)-yl)methyl)phenyl)propanoic Acid], the dissociation constant Kd in assay [1] was less than 1 nM.

Regarding `Cc1cnc2c(c1)S(=O)(=O)N(Cc1cc(C(c3ccn4c(C(F)(F)F)nnc4c3C)C(C)(C)C(=O)O)cnc1C)CC1(CC1)O2` (single isomer, unassigned) [Example 574, (*R)-2,2-Dimethyl-3-(8-methyl-3-(trifluoromethyl)-[1,2,4]triazolo[4,3-a]pyridin-7-yl)-3-(6-methyl-5-((8′-methyl-1′,1′-dioxidospiro[cyclopropane-1,4′-pyrido[2,3-b][1,4,5]oxathiazepin]-2′(3′H)-yl)methyl)pyridin-3-yl)propanoic Acid], the Kd in assay [1] was determined as 6750 nM.

In the case of `Cc1cnc2c(c1)S(=O)(=O)N(Cc1cc([C@H](c3ccn4c(C(F)(F)F)nnc4c3C)C(C)(C)C(=O)O)cnc1C)CC1(CC1)O2` (single isomer, unassigned) [Example 573, (*S)-2,2-Dimethyl-3-(8-methyl-3-(trifluoromethyl)-[1,2,4]triazolo[4,3-a]pyridin-7-yl)-3-(6-methyl-5-((8′-methyl-1′,1′-dioxidospiro[cyclopropane-1,4′-pyrido[2,3-b][1,4,5]oxathiazepin]-2′(3′H)-yl)methyl)pyridin-3-yl)propanoic Acid], the Kd in assay [1] was less than 1 nM.

Consider `Cc1ccc([C@@H](c2ccn3c(C(F)(F)F)nnc3c2C)C(C)(C)C(=O)O)cc1CN1CC2(CC2)Oc2nc(OCCN3CCC(F)CC3)c(C)cc2S1(=O)=O` (single isomer, unassigned) [Example 661, (*S)-3-(3-((7′-(2-(4-fluoropiperidin-1-yl)ethoxy)-8′-methyl-1′,1′-dioxidospiro[cyclopropane-1,4′-pyrido[2,3-b][1,4,5]oxathiazepin]-2′(3′H)-yl)methyl)-4-methylphenyl)-2,2-dimethyl-3-(8-methyl-3-(trifluoromethyl)-[1,2,4]triazolo[4,3-a]pyridine-7-yl)propanoic Acid], for which, in assay [1], the dissociation constant (Kd) is less than 1 nM.

Regarding `Cc1ccc([C@@H](c2ccn3c(C(F)(F)F)nnc3c2C)C(C)C(=O)O)cc1CN1CC2(CCOCC2)Oc2ccc(F)cc2S1(=O)=O` (single isomer, unassigned) [Example 416, (3S*)-3-(3-((8-fluoro-1,1-dioxido-2′,3′,5′,6′-tetrahydrospiro[benzo[b][1,4,5]oxathiazepine-4,4′-pyran]-2(3H)-yl)methyl)-4-methylphenyl)-2-methyl-3-(8-methyl-3-(trifluoromethyl)-[1,2,4]triazolo[4,3-a]pyridin-7-yl)propanoic Acid], in assay [2], a half-maximal effect (EC50) was put at 2.53 nM.

In the case of `Cc1cnc2c(c1)S(=O)(=O)N(Cc1cc([C@H](CC(=O)O)c3ccn4c(C(F)F)nnc4c3C)ccc1C)C[C@H]1CCCCN21` (stereo in doubt) [Example 503, (*S)-3-(3-(Difluoromethyl)-8-methyl-[1,2,4]triazolo[4,3-a]pyridin-7-yl)-3-(4-methyl-3-(((*R)-3-methyl-5,5-dioxido-7,7a,8,9,10,11-hexahydro-6H-dipyrido[2,1-d:2′,3′-f][1,2,5]thiadiazepin-6-yl)methyl)phenyl)propanoic Acid], the EC50 in assay [2] is 2.58 nM.

Molecule `Cc1ccc([C@H](c2ccn3c(C(F)(F)F)nnc3c2C)C(C)C(=O)O)cc1CN1C[C@@H]2CCCCN2c2ncccc2S1(=O)=O` (relative stereo) [Example 130, (3*R)-3-(3-(((*S)-5,5-Dioxido-7,7a,8,9,10,11-hexahydro-6H-dipyrido[2,1-d:2′,3′-f][1,2,5]thiadiazepin-6-yl)methyl)-4-methylphenyl)-2-methyl-3-(8-methyl-3-(trifluoromethyl)-[1,2,4]triazolo[4,3-a]pyridine-7-yl)propanoic Acid] gave a 50% effective concentration (EC50) in assay [2] of 54.8 nM.

As for `Cc1ccc([C@H](CC(=O)O)c2ccn3c(C(F)F)nnc3c2C)cc1CN1C[C@@H]2CCCCN2c2ncc(F)cc2S1(=O)=O` (relative stereo) [Example 511, (*S)-3-(3-(Difluoromethyl)-8-methyl-[1,2,4]triazolo[4,3-a]pyridin-7-yl)-3-(3-(((*S)-3-fluoro-5,5-dioxido-7,7a,8,9,10,11-hexahydro-6H-dipyrido[2,1-d:2′,3′-f][1,2,5]thiadiazepin-6-yl)methyl)-4-methylphenyl)propanoic Acid], the 50% effective concentration (EC50) in assay [2] worked out at 1.52 nM.

As for `Cc1ccc([C@@H](c2ccn3c(C(F)F)nnc3c2C)C(C)(C)C(=O)O)cc1CN1CC2(CC2)Oc2ncccc2S1(=O)=O` (single isomer, unassigned) [Example 567, (*S)-3-(3-(Difluoromethyl)-8-methyl-[1,2,4]triazolo[4,3-a]pyridin-7-yl)-3-(3-((1′,1′-dioxidospiro[cyclopropane-1,4′-pyrido[2,3-b][1,4,5]oxathiazepin]-2′(3′H)-yl)methyl)-4-methylphenyl)-2,2-dimethylpropanoic Acid], the EC50 in assay [2] turned out to be 2.6 nM.

`Cc1cnc2c(c1)S(=O)(=O)N(Cc1cc(C(c3ccn4c(C(F)(F)F)nnc4c3)C(C)(C)C(=O)O)ccc1C)CC1(CC1)O2` (stereo not drawn) [Example 322, 2,2-Dimethyl-3-(4-methyl-3-((8′-methyl-1′,1′-dioxidospiro[cyclopropane-1,4′-pyrido[2,3-b][1,4,5]oxathiazepin]-2′(3′H)-yl)methyl)phenyl)-3-(3-(trifluoromethyl)-[1,2,4]triazolo[4,3-a]pyridin-7-yl)propanoic Acid] gave an EC50 in assay [2] of 22.4 nM.

For the molecule `Cc1ccc([C@H](CC(=O)O)c2ccn3c(C(F)(F)F)nnc3c2C)cc1CN1C[C@H]2CCC(F)(F)CN2c2ncccc2S1(=O)=O` (relative stereo) [Example 454, (*S)-3-(3-(((*R)-10,10-difluoro-5,5-dioxido-7,7a,8,9,10,11-hexahydro-6H-dipyrido[2,1-d:2′,3′-f][1,2,5]thiadiazepin-6-yl)methyl)-4-methylphenyl)-3-(8-methyl-3-(trifluoromethyl)-[1,2,4]triazolo[4,3-a]pyridin-7-yl)propanoic Acid], the EC50 in assay [2] stood at 38.3 nM.

Consider `CCn1nnc2c(C)c([C@@H](CC(=O)O)c3ccc(C)c(CN4C[C@@H]5COCCN5c5ncccc5S4(=O)=O)c3)ccc21` (single isomer, unassigned) [Example 139, (*S)-3-(3-(((*R)-5,5-Dioxido-7a,8,10,11-tetrahydro-[1,4]oxazino[3,4-d]pyrido[2,3-f][1,2,5]thiadiazepin-6(7H)-yl)methyl)-4-methylphenyl)-3-(1-ethyl-4-methyl-1H-benzo[d][1,2,3]triazol-5-yl)propanoic Acid], for which the 50% effective concentration (EC50) in assay [2] amounted to 3.3 nM.

In the case of `Cc1ccc([C@H](CC(=O)O)c2ccn3c(C(F)F)nnc3c2C)cc1CN1C[C@@H]2CCCCN2c2ncccc2S1(=O)=O` (relative stereo) [Example 447, (*S)-3-(3-(Difluoromethyl)-8-methyl-[1,2,4]triazolo[4,3-a]pyridin-7-yl)-3-(3-(((*S)-5,5-dioxido-7,7a,8,9,10,11-hexahydro-6H-dipyrido[2,1-d:2′,3′-f][1,2,5]thiadiazepin-6-yl)methyl)-4-methylphenyl)propanoic Acid], the concentration for a half-maximal effect (EC50) in assay [2] worked out at 2.93 nM.

Consider `Cc1cnc2c(c1)S(=O)(=O)N(Cc1cc(C(c3ccn4c(C(F)(F)F)nnc4c3C)C(C)(C)C(=O)O)cnc1C)CC1(CC1)O2` (racemic) [Example 572], for which, in assay [2], a half-maximal response (EC50) required 392 nM.
